Experimental data reported in paper PMC10299677, “Fluorinated Benzofuran and Dihydrobenzofuran as Anti-Inflammatory and Potential Anticancer Agents” (International Journal of Molecular Sciences, 2023).

Experiments:
PGE2 = PGE2 release in LPS-treated macrophages (BMDM); format: cell-based, C57BL/6J mice; conditions: 10 µM for compounds 1, 7, 9, 50 µM for others, 10 ng/mL LPS 24 h
Method: C57BL/6J (10–15 weeks old) male mice were obtained from the animal care facility at the American University of Beirut. All animal procedures were performed following the recommendations of the IACUC (Institutional Animal Care and Use Committee approval 16-09-M379). BMDMs were prepared and characterized as described previously by our group. BMDMs were isolated from C57BL/6J mice by flushing the femur and tibia with RPMI-1640 culture media (Sigma-Aldrich R7388), and cells were collected and centrifuged at 300× g for 5 min. The supernatant was discarded, and the pellet was resuspended in 2 mL red blood lysis 10% (Sigma-Aldrich R7767) medium in PBS and incubated for 5 min at room temperature. After diluting the suspension of cells with 5 mL of RPMI containing 10% FBS and 1% penicillin–streptomycin, cells were centrifuged at 300× g for 5 min, and the cell pellet was resuspended in RPMI media containing 10% FBS supplemented with 15% L929-conditioned medium containing macrophage-colony stimulating factor (M-CSF1) and plated on […]. Cells were allowed to proliferate and differentiate for 5–6 days. Cells were harvested, washed, and allowed to adhere overnight in RPMI containing 10% FBS for treatment. Cells were previously characterized by flow cytometry as macrophages using this method. […] Cells were plated at 0.8 × 10^6 cells per 3.8 cm^2 well [27].
BMDMs were then treated with different concentrations of the benzofuran and dihydrobenzofuran derivatives for 30 min prior to the addition of 10 ng/mL LPS for 24 h. […] The supernatants were assessed for IL-6, PGE2, CCL2, and nitrite, the stable derivative of NO, as described previously.
(§1) IL-6, CCL2, nitrite (for NO), and PGE2 concentrations from 3–5 independent experiments were expressed as percentage of LPS alone and as mean ± SEM. COX activity was determined as percentage of PGE2 produced from exogenous arachidonic acid. Curve fitting and calculation of IC50 values were performed using GraphPad Prism (version 9.5.1 Software, La Jolla, CA, USA).

COX-1 = target: T1, COX-1 (Homo sapiens, UniProt P23219); test: COX-1 activity: PGE2 from exogenous arachidonic acid in HEK-293 cells overexpressing COX-1; format: cell-based; conditions: 10 µM for compounds 1, 7, 9, 50 µM for others; 10 µM arachidonic acid
T1 construct: expressed in transfected cells
T1 sequence (P23219 24-599): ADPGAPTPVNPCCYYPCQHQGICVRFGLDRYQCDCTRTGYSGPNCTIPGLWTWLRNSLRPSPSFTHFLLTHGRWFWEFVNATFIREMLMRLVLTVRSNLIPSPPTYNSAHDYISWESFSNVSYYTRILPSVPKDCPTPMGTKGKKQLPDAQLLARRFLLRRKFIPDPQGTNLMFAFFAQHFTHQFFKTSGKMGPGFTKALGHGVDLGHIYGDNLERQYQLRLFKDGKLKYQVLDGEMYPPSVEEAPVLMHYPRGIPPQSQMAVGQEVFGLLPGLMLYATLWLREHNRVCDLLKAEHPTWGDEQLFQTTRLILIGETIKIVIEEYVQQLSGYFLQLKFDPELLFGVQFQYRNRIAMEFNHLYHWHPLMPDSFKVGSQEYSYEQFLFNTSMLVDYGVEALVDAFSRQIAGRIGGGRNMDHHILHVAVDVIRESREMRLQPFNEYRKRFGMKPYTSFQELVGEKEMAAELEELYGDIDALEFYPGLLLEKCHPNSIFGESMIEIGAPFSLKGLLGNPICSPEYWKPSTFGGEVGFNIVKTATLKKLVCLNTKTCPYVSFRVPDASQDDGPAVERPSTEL
Method: Figure 3 Effects of the fluorinated benzofuran and dihydrobenzofuran on COX-1 and COX-2 activities. (A) Illustration for COX-1 activity assay. HEK-293 cells stably overexpressing COX-1 are treated with the nine derivatives of benzofuran at concentrations of only 10 µM for compounds 1, 7, and 9, and 50 µM for the other compounds, 30 min prior to the addition of 10 µM arachidonic acid (AA). […] (B) COX-1 activity. […] Levels of PGE2 were very low in the absence of arachidonic acid (0.04 ± 0.01 ng/mL) and 104.3 ± 16.7 ng/mL for 10 µM AA. (C) Illustration for COX-2 activity determination. Macrophages are treated with 10 µM of aspirin (ASA) for 30 min to block basal COX activity, washed, and treated with 10 ng/mL LPS for 24 h to induce COX-2. Cells are then washed and incubated 30 min with 50 µM of the different compounds prior to the addition of 10 µM of AA. The produced PGE2 mainly reflects COX-2 activity. (D) COX-2 activity. Percentage of LPS-treated cells was calculated, and data are represented as mean ± SEM (n = 4); * p < 0.05 versus AA for COX-1 activity, and versus LPS + ASA + AA for COX-2 activity (one-way ANOVA followed by Dunnett’s test). […] Levels of PGE2 were very low in the absence of arachidonic acid (0.06 ± 0.01 ng/mL) and 71.7 ± 5.7 ng/mL for 10 µM AA.
COX-1 and COX-2 activities were performed as described previously in human embryonic kidney cell line (HEK-293) stably overexpressing COX-1 [19] and in macrophages, respectively. […] For both COX-1 and COX-2 assays, the benzofuran compounds were then added to the cells for 30 min prior to the incubation with 10 µM arachidonic acid for another 30 min. PGE2 was then measured using an enzyme immunoassay, as described previously.
as §1

[1] = Toxicity on macrophages (BMDM), WST-1 assay; format: cell-based, C57BL/6J mice; conditions: C57BL/6J, mouse, bone marrow-derived macrophages (BMDM), read-out: macrophage viability
Method: WST-1 assay (Sigma-Aldrich, 5015944001) was used to determine the toxicity of the synthesized compounds on BMDM and HCT116 (ATCC, CCL-247), kindly provided by Dr. Nadine Darwiche, Department of Biochemistry and Molecular Genetics, American University of Beirut, Lebanon. Briefly, macrophages (50,000 cells per well) and HCT116 (20,000 cells per well) were plated in a 96-well plate in RPMI 1640 culture medium containing 10% fetal bovine serum (FBS) and grown for 24 h. Cells (in triplicates) were treated with 10 or 50 μM of the compounds for macrophages, and 50 or 100 μM for HCT116. Culture medium without cells and cells without treatment were used as basal and maximal activity, respectively. Results were expressed as percentage of cells without treatment.
F i g u re S1: E ff e c t of fluorin at ed benzofuran derivatives on m acrophages
viabilit y. C ells in cub at ed with 10 and 50 μM of benzofuran d eri vativ es
(compounds 1 to 9) bel onging to groups І, II, III and IV for 24 hours. Cell
viabilit y w as det ermin ed by WST-1 assay. Non-t r eated m acrophages wer e used
as cont rol. Results were shown as mean ± SEM (n=3) . *p< 0.05 comp ar ed to the
vehicle –treated cells (basal), one-way ANOVA followed by Dunnett’s test.
(1 picture or pasted object on this page, not shown here)

IL-6 mRNA = test: LPS-dependent IL-6 mRNA in THP-1-derived macrophages (RT-PCR); format: cell-based, human; conditions: 50 µM, 10 ng/ml LPS 6 h
Method: F i g u re S3: Eff ect of benzofuran compounds on the lev els of LP S -dependent mRNA of CCL2 and IL-6 in THP-1 –deriv ed macrophages. Human-monoc yti c cell l ine-THP-1 wer e treat ed with PMA (25 nM for 48 hours) th en in cub ated with 50 μM compounds for 30 minutes b efo re the addit ion of 10 ng/ml LP S fo r 6 hours. Gene ex pression of IL6 and CCL2 were measur ed by RT-PCR and the v alu es wer e nor mal ized to GAPDH. Results represent means ± SEM by one way ANOVA followed by Dunnett test.

COX-2 protein expression = COX-2 protein expression in LPS-treated macrophages (Western blot); format: cell-based, C57BL/6J mice; conditions: 10 µM for compounds 1, 7, 9, 50 µM for others, LPS 24 h
Method: Figure 4 Effects of the fluorinated benzofuran and dihydrobenzofuran on COX-2 and NOS2 protein expressions. COX-2 and NOS2 protein expressions were assessed in macrophages incubated with only 10 µM for compounds 1, 7, and 9, and 50 µM for the other compounds, for 30 min prior to the addition of 10 ng/mL LPS for 24 h. β-actin was used as a loading control, and densitometric analysis was performed using ImageJ software (NIH, MA). Data are expressed as fold of LPS-treated macrophages and represented as mean ± SEM of 4 different experiments; * p < 0.05 versus LPS (one-way ANOVA followed by Dunnett’s test).
Macrophages were incubated with the compounds for 30 min prior to the addition of 10 ng/mL LPS for 24 h. Protein levels for COX-2 and NOS2 were detected in LPS-stimulated macrophages. As previously described, 10 µg of total protein was assessed. The primary antibodies were developed and characterized as previously described: for COX-2, mouse monoclonal antibody anti-COX-2 (clone COX-214, 1/5000); for NOS2, rabbit polyclonal antibody anti-NOS2 (dilution1/2000 [33]). Antibodies anti-phospho-NF-κB (3033S), phospho-IκBα (9246S), and total IκBα (4814S) were from Cell Signaling Technologies (Danvers, MA, USA). Total NF-κB C-20 (sc-372) was from Santa Cruz Biotechnologies (Dallas, TX, USA), and mouse β-actin (dilution 1/10,000) (Sigma-Aldrich, A5441). Clarity™ western ECL substrate (Bio-Rad Laboratories 10-5061) was used according to the manufacturer’s instructions to reveal positive bands visualized using Bio-Rad ChemiDoc. For Bcl-2 and cleaved PARP-1, HCT116 cells were plated in 6-well plates (200,000 cells per well) for 24 h, and treated with compounds 1 and 2 at 10, 25, and 50 µM for 72 h. Supernatants and cells were collected and lysed using RIPA lysis buffer containing inhibitors of protease. Western blot of Bcl-2 and cleaved PARP-1 was performed using 25 µg of total protein with a rabbit polyclonal antibody anti-Bcl-2 (1/500) (Santa Cruz Biotechnology, sc-492), rabbit polyclonal antibody anti-PARP-1 (1/1000) (Santa Cruz Biotechnology, sc-7150), and mouse anti-β-actin (dilution 1/10,000) (Sigma-Aldrich, A5441).
Densitometric analyses were performed using ImageJ software (NIH, MA, USA). The ratio of the different analyzed bands to β-actin was determined and data are represented as fold change compared to the LPS-treated cells. Percentage of viable cells for proliferation assay was determined as percentage to control (non-treated cells). For TUNEL assay, apoptotic cells were quantified, and results were expressed as percentage to positive cells (cleaved DNA) compared to control (non-treated cells). Statistical analysis was performed using one-way ANOVA, followed by Dunnett’s multiple comparisons test using GraphPad Prism software. Differences were considered significant when p < 0.05.

SMILES | effect on PGE2 production in response to LPS (PGE2) | effect on COX-1 activity (COX-1) | viability at 24 h, 50 µM [1] | effect on IL-6 mRNA levels (IL-6 mRNA) | effect on LPS-induced COX-2 protein expression (COX-2 protein expression)
COC(=O)CC1(SCCO)Oc2ccc(Br)cc2C1(F)F (stereo not drawn) [Compound 7] | loss of the inhibitory activity | loss of the inhibitory activity | 50% |  | 
COC(=O)C1CC(C)=C(C)CC12Oc1ccc(Br)cc1C2(F)F (stereo not drawn) [Compound 9] |  |  | 50% |  | 
O=C(O)/C=C1/Oc2ccccc2C1(F)F [Compound 4] |  |  |  | to a lesser extent | loss of this inhibitory effect
